3 molecules from US11008572B2, “Methods and compositions for modulating splicing” (SKYHAWK THERAPEUTICS, INC., priority 2017, dated 2021) can be followed below.

The structures appear in SMILES notation.

Assay [1] relates to IKBKAP^FL mRNA. The experiment in a line: IKBKAP splicing assay, qPCR. The following applies: 24 hours of incubation. Type of assay: cell-based. As for the experimental part:
(§1) Various cells lines were treated with the SMSMs described herein. RNA was then isolated, cDNA synthesized, qPCR performed and the levels of IKBKAP targets of the SMSMs were determined.
(§2) On the day of the experiment, a 96-well plate was seeded with the cell lines of interest. The cells were diluted with full growth media to a concentration of 2.0×10^5 cells/mL and 100 μL of cells were added to each well (20,000 cells per well). The cells were treated with a compound immediately after plating.
(§3) The compounds were then added to the cell plate using the HP compound dispenser. In the initial experiment, a top concentration of 10 μM and an 8 point 4-fold dilution scheme was used. The stock compounds were made at a concentration of 5 mM, and the DMSO concentration was set to 0.2%. DMSO was used to normalize all the compound-containing wells and the untreated cells.
(§4) The treated cells were incubated at 37° C. in a 5% CO2 incubator for the desired amount of time. Plates were placed in a plastic bag with a wet paper towel to prevent evaporation.
(§5) RNA was isolated using the Cells to CT kit (ThermoFisher, AM1728). The cells were washed once with 100 μL cold PBS. 50 μL of lysis buffer was added to each well/tube (49.5 μL lysis buffer+0.5 μL DNase I per well/tube). The lysis reaction was mixed and incubated at room temperature for 5 minutes. 5 μL of stop solution was added directly into each cell lysis reaction and mixed by pipetting up and down 5 times. The plates/tubes were incubated at room temperature for 2 minutes then placed on ice if the cDNA synthesis was to be performed immediately. Otherwise, the plates/tubes were stored at −80° C.
(§6) cDNA synthesis reactions were then performed. 40 μL RT master mix was added to PCR tubes or plate wells. 10 μL of RNA was added to each tube/well. The RT thermal cycler program was then run and tubes or plate wells were incubated at 37° C. for 1 hour, then at 95° C. for 5 minutes to deactivate the enzyme.
(§7) The qPCR was performed using a QuantStudio 6 instrument (ThermoFisher) and the following cycling conditions and according to the tables below. All samples and standards were analyzed in triplicate. Cycle 1: 2 minutes at 50° C. Cycle 2: 10 minutes at 95° C. Cycle 3 (repeat 40 times): 15 seconds at 95° C., 1 minute at 60° C.
(§8) The determined IKBKAP^FL and […] isoform quantities were then used to determine the IKBKAP^FL: IKBKAP^Δ20 ratio at increasing SMSM compound concentrations. The PPIA quantities were used in the normalization to account of cell proliferation effects of the compounds.
(§9) An assay to measure the IKBKAP^FL mRNA and IKBKAP^Δ20 mRNA simultaneously in cell wells was performed. The RNA values were measured relative to DMSO control and also included a housekeeping gene, PPIA to ensure data was consistent. The mRNA values were measured after 24 hours of incubation with the SMSM compounds.
(In general: Real-time PCR tracks product formation cycle by cycle.)

Assay [2] has as its system IKBKAP^Δ20 mRNA. The assay can be described thus: IKBKAP splicing assay, qPCR. The format is cell-based. The following applies: 24 hours of incubation. As for the experimental part:
as §1, §2, §3, §4, §5, §6, §7, §8, §9

Assay [3] concerns A673 cells. The assay can be described thus: Dose-response cell proliferation, crystal violet assay, 72 h. The format is cell-based. The following applies: ratio of IC50 in NHDF cells to IC50 in A673 cells. As for the experimental part:
Small molecule splicing modulators were tested in a dose-response assay using A673 cells and NHDF cells.
A673 cells or NHDF cells were first plated in 96-well plastic tissue culture plates (10,000 cells per well). The cells were treated with vehicle alone (DMSO), or increasing concentrations of SMSM compounds for 72 h. Following treatment, cell proliferation was determined using a crystal violet assay. The relative cell proliferation at each concentration was determined.

Assay [4] relates to A673 xenografts. The experiment in a line: A673 xenograft tumor growth inhibition. Type of assay: in vivo. The following applies: immunocompromised nude mice with pre-existing A673 xenografts. As for the experimental part: Dose range and time course studies comparing anti-neoplastic effects of SMSM-167 and SMSM-151 against vehicle were conducted.
Female NCrNu mice were used. Age range of enrolment was 7-10 weeks. A total of 75animals were for the studies.
The A673 tumor cell line was maintained in vitro as a monolayer culture. […] The cells growing in an exponential growth phase were harvested and counted for tumor inoculation.
Each mouse were inoculated into aright flank with the single cell suspension of 95% viable tumor cells (5×10^6 cells/mouse) in serum-free RPMI 1640 Media for tumor development. Treatments were administered when mean tumor size reached approximately 75 mm^3. […]
Body weight were measured prior to tumor inoculation and prior to the treatment administration and then daily. Tumor size were measured 2-3 times per week in two dimensions using a caliper, and the volume were expressed in mm^3 using the formula: V=0.5×a×b^2 where a and b are the long and short diameters of the tumor, respectively. […]
Studies were performed to assess the effects of in vivo SMSM treatment on glioblastoma, breast, pancreatic, prostate, melanoma, lymphoma and Ewing sarcoma tumors. […] After SMSM treatment, mRNA was isolated from the xenografts and was analyzed by qRT-PCR.
Tumor size was measured 2 times per week in two dimensions using a caliper. […]

One may read the EC50 as the concentration at which the effect is half-maximal. Low readings indicate greater potency, high ones weaker potency. The IC50 is the concentration at which inhibition is half-maximal. In turn, `CN(c1ccc(-c2ccc(-c3cn[nH]c3)cc2O)nn1)[C@@H]1C[C@H]2CC[C@@H](C1)N2` [compound 138, 2-(6-(((1R,3s,5S)-8-azabicyclo[3.2.1]octan-3-yl)(methyl)amino)pyridazin-3-yl)-5-(1H-pyrazol-4-yl)phenol] came in with an EC50 in assay [1] of 101 to 350 nM. The molecule also came in with an IC50 in assay [2] of 201 to 1000 nM.

Take `CN(c1ccc(-c2ccc(-c3cn[nH]c3)cc2O)nn1)[C@H]1C[C@]2(C)CC[C@](C)(C1)N2` [compound 151, 2-(6-(((1R,3s,5S)-1,5-dimethyl-8-azabicyclo[3.2.1]octan-3-yl)(methyl)amino)pyridazin-3-yl)-5-(1H-pyrazol-4-yl)phenol]: the “Ratio NHDF/A673 IC50” value in assay [3] is over 350. In addition, the “tumor growth inhibition (TGI), in words” value in assay [4] is given as “led to tumor growth inhibition”.

On to `CN(c1ccc(-c2ccc(-c3cn[nH]c3)cc2O)nn1)[C@@H]1C[C@H]2CCC[C@@H](C1)N2` [compound 160, 2-(6-(((1R,3s,5S)-9-azabicyclo[3.3.1]nonan-3-yl)(methyl)amino)pyridazin-3-yl)-5-(1H-pyrazol-4-yl)phenol], for which the EC50 in assay [1] was under 100 nM. This molecule showed an IC50 in assay [2] of under 200 nM. Also, the “tumor growth inhibition (TGI), in words” value in assay [4] is given as “led to tumor growth inhibition”.
